Measured values: patent US12035738B2, “Low calorie food compositions” (Mars, Incorporated, priority 2015, dated 2024)

What was measured:
[1] = parameters: species or system humans; conditions: in vivo
Method: A panel of 10 assessors were used to evaluate sensory differences between cellobiose containing (2 levels; 75% and 100% sucrose substitution) and standard chocolate.
The maximum amount of cellobiose consumed during one 3 hour sensory session was set at 20 g and 8 g respectively (100% cellobiose sample contained 49.5 g cellobiose/100 g, 75% cellobiose sample contained 34.7 g/100 g and 60% inulin sample contained 29.7 g inulin/100 g).
For each attribute, panelists were presented with all samples (˜3.5 g sample size) allowing comparative assessment. Panelists first determined rank order and then assigned ratings using separate line scales for each sample/attribute.
All samples were presented in 2 oz plastic pots labelled with random 3 digit codes. Panelists were provided with unsalted cracker (Rakusen, U.K.), green apple slices and mineral water (Evian, France) for palate cleansing. Attributes were assessed in blocks of 2 followed by 15 mins rest breaks.
(§1) A number of gastro-intestinal symptoms were reported by the panelists in the 24 hours following the sensory sessions, the most common being flatulence (10/10 on at least 1 occasion) and bowel sounds (8/10 on at least 1 occasion). Some degree of […] discomfort was reported by 7/10 panelists on 1 or more occasions and 5 out of the 10 panelists suffered diarrhea following 1 or more sessions. A previous tolerability study carried out using cellobiose (H-09-2011) examined GI effects when cellobiose was delivered in a water based solution and used only male subjects aged between 18-35 yrs. The number and severity of symptoms seen in this study was not expected given the previous tolerability results where cellobiose was consumed as a drink (10, 20, 30 or 50 g of cellobiose was dissolved in 200 ml of hot water and allowed to cool to room temperature overnight). […] With the consumption of 30 g, 4 people (31%) experienced short duration abdominal pain (ranging in severity from 1 to 3 out of 5), 2 people (15%) reported mild flatulence (severity 1 out of 5) and one person reported this at a severity of 3 out of 5. […] Six subjects (46%) reported flatulence (range 1-4 out of 5), and 4 experienced abdominal pain (severity between 1-2 out of 5). Three quarters of subjects were happy to take part in future studies involving the ingestion of cellobiose, even at the highest dose.

[2] = administered to humans as a drink; cited from earlier work
[3] = Previous tolerability study (H-09-2011), cellobiose consumed as a drink in water based solution; format: in vivo, humans
Method: as §1

[4] = 30 g cellobiose, severity 1 out of 5

- panelists reporting bowel sounds ([1]; human, 24 h): 8/10
- panelists reporting flatulence ([1]; human, 24 h): 10/10
- panelists reporting some degree of abominable discomfort ([1]; human, 24 h): 7/10
- panelists who suffered diarrhea ([1]; human, 24 h): 5 out of the 10 panelists
- Symptoms (y/n) [1]: Y
SMILES: O=C[C@H](O)[C@@H](O)[C@H](O[C@@H]1O[C@H](CO)[C@@H](O)[C@H](O)[C@H]1O)[C@H](O)CO [cellobiose]
- undesirable side effects [1]: stomach cramps, nausea, diarrhea and loss of appetite
- unpleasant side effects [2]: not observed to such a great degree
- abdominal symptoms reported ([3]; 10 g cellobiose in 200 ml water): mild or no abdominal symptoms
- abdominal symptoms reported ([3]; 20 g cellobiose in 200 ml water): mild or no abdominal symptoms
- people who experienced short duration abdominal pain ([3]; 30 g cellobiose): 4 people
- persons who reported flatulence at a severity of 3 out of 5 ([3]; 30 g cellobiose): one
- severity of mild flatulence ([3]; 30 g cellobiose): 1 out of 5
- share of people with short duration abdominal pain ([3]; 30 g cellobiose): 31%
- people who reported mild flatulence [3, 4]: 2 people
- share of people with mild flatulence [3, 4]: 15%
- abdominal pain severity ([3]; 50 g cellobiose): 1-2 out of 5
- flatulence severity range ([3]; 50 g cellobiose): 1-4 out of 5
- persons who reported diarrhea in the first 24 h ([3]; 50 g cellobiose): 1
- persons with a single episode of diarrhea 2 h after consuming ([3]; 50 g cellobiose): 1 person
- share of subjects who reported flatulence ([3]; 50 g cellobiose): 46%
- subjects who experienced abdominal pain ([3]; 50 g cellobiose): 4
- subjects who reported flatulence ([3]; 50 g cellobiose): Six
